# Measurements taken from patent US20090042839A1, “Crystalline forms of ibandronate sodium” (priority 2007, published 2009).
# Legend:
# [1] = Stability of crystalline forms of ibandronate sodium when stored for 3 months at room temperature (polymorphic form by XRD); format: physicochemical; details: for crystalline form after storage: storage at room temperature for 3 months; for Results (crystalline form after storage): stored at 25° C., polyethylene bags in closed Aluminium bags, monosodium salt
# Method: The x-ray powder diffraction was performed on Scintag X-ray powder diffractometer model X'TRA with a solid state detector at room temperature. Copper radiation of 1.5418 Å was used. The sample holder was a round standard aluminum sample holder with rough zero background. The scanning parameters were range: 2-40 degrees two-theta; scan mode: continuous scan; step size: 0.05 degrees; and at a rate of 5 degrees/minute. […]
# [2] = Storage of crystalline ibandronate sodium Form C at room temperature for 2 years, retested by XRD; format: physicochemical; details: stored at room temperature for 2 years
# Method: The x-ray powder diffraction was performed on Scintag X-ray powder diffractometer model X'TRA with a solid state detector at room temperature. Copper radiation of 1.5418 Å was used. The sample holder was a round standard aluminum sample holder with rough zero background. The scanning parameters were range: 2-40 degrees two-theta; scan mode: continuous scan; step size: 0.05 degrees; and at a rate of 5 degrees/minute.
# Crystalline ibandronate sodium Form C was stored at room temperature for 2 years.
SMILES,crystalline form after storage [1],Results (crystalline form after storage) ([1]; 1 month),Results (crystalline form after storage) ([1]; 3 months),crystalline form found by XRD after storage [2]
"CCCCCN(C)CCC(O)(P(=O)([O-])O)P(=O)(O)O.[Na+] [Form Alpha, (1-hydroxy-3-(N-methyl-N-pentylamino)propylidene) bisphosphonic acid monosodium salt]",maintained their crystalline form,Alpha,Alpha,–
"CCCCCN(C)CCC(O)(P(=O)([O-])O)P(=O)(O)O.[Na+] [Form n-butanolate, (1-hydroxy-3-(N-methyl-N-pentylamino)propylidene) bisphosphonic acid monosodium salt]",maintained their crystalline form,n-butanolate,n-butanolate,–
"CCCCCN(C)CCC(O)(P(=O)([O-])O)P(=O)(O)O.[Na+] [Form C2, (1-hydroxy-3-(N-methyl-N-pentylamino)propylidene) bisphosphonic acid monosodium salt]",maintained their crystalline form,–,–,–
"CCCCCN(C)CCC(O)(P(=O)([O-])O)P(=O)(O)O.[Na+] [Form C, (1-hydroxy-3-(N-methyl-N-pentylamino)propylidene) bisphosphonic acid monosodium salt, reference compound]",maintained their crystalline form,–,–,crystalline ibandronate sodium Form V
